Values after ≈ are worked out from the molar mass of the structure shown.
What follows are molecules tested on ATCC 35837: Ethanmbutol resistant Mycobacterium tuberculosis (assay: Assay for in vitro antibacterial activity, agar dilution method: ATCC 35837). Conditions: Mycobacterium tuberculosis, ATCC35837, read-out: Antibacterial Activity (MIC50) ATCC 35837.
Type: cell-based

Compound | MIC50
CO[C@H]1/C=C/O[C@@]2(C)Oc3c(C)c(O)c4c(O)c(c(/C=N/N5CCN(C)CC5)c(O)c4c3C2=O)NC(=O)/C(C)=C\C=C\[C@H](C)[C@H](O)[C@@H](C)[C@@H](O)[C@@H](C)[C@H](OC(C)=O)[C@@H]1C [Rifampin, reference compound] | 0.2 µg/mL (≈ 0.243 µM)
CC(=O)NC[C@H]1CN(c2ccc(N3CCOCC3)c(F)c2)C(=O)O1 [Example U-100766, reference compound] | 1.56 µg/mL (≈ 4.62 µM)
N[C@@H]1CON=C1O [Cycloserine, reference compound] | 6.25 µg/mL (≈ 61.2 µM)

Same assay, conditions: agar dilution method; Ethanmbutol resistant Mycobacterium tuberculosis

Compound | Antibacterial Activity (MIC50) ATCC 35837
CC(=O)NC[C@H]1CN(c2ccc(-c3ccc(-c4nnn(C)n4)nc3)c(F)c2)C(=O)O1 [Exmp. 140, (S)-[N-3-(4-(2-(2-methyl-5-tetrazolyl)-pyridin-5-yl)-3-fluorophenyl)-2-oxo-5-oxazolidinyl]methyl acetamide] | 0.1 µg/mL
CC(=O)NC[C@H]1CN(c2ccc(-c3ccc(-c4nnnn4C)nc3)c(F)c2)C(=O)O1 [Exmp. 139, (S)-[N-3-(4-(2-(1-methyl-5-tetrazolyl)-pyridin-5-yl)-3-fluorophenyl)-2-oxo-5-oxazolidinyl]methyl acetamide] | 0.1 µg/mL
CC(=O)NC[C@H]1CN(c2ccc(-c3ccc(-n4cncn4)nc3)c(F)c2)C(=O)O1 [Exmp. 129, (S)-[N-3-(4-(2-(1,2,4-triazol-1-yl)pyridin-5-yl)-3-fluorophenyl)-2-oxo-5-oxazolidinyl]methyl acetamide] | 0.2 µg/mL
CC(=O)NC[C@H]1CN(c2ccc(-c3ccc(N4CCOC4=O)nc3)c(F)c2)C(=O)O1 [Exmp. 143, (S)-[N-3-(4-(2-(2-oxo-(1,3)-oxazolidin-3-yl)-pyridin-5-yl)-3-fluorophenyl)-2-oxo-5-oxazolidinyl]methyl acetamide] | 0.1 µg/mL
CC(=O)NC[C@H]1CN(c2ccc(-c3ccc(-n4cnnn4)nc3)c(F)c2)C(=O)O1 [Exmp. 136, (S)-(N-3-(4-(2-(1-tetrazolyl)-pyridin-5-yl)-3-fluorophenyl)-2-oxo-5-oxazolidinyl)methyl acetamide] | 0.1 µg/mL
CC(=O)NC[C@H]1CN(c2ccc(-c3ccc(-c4nnc(C)o4)nc3)c(F)c2)C(=O)O1 [Exmp. 137, (S)-[N-3-(4-(2-(5-methyl-(1,3,4)-oxadiazol-2-yl)-pyridin-5-yl)-3-fluorophenyl)-2-oxo-5-oxazolidinyl]methyl acetamide] | 0.1 µg/mL
CC(=O)NC[C@H]1CN(c2ccc(-c3ccc(-c4noc(C)n4)nc3)c(F)c2)C(=O)O1 [Exmp. 138, (S)-[N-3-(4-(2-(5-methyl-(1,2,4)-oxadiazol-3-yl)pyridin-5-yl)-3-fluorophenyl)-2-oxo-5-oxazolidinyl]methyl acetamide] | 0.1 µg/mL
CC(=O)NC[C@H]1CN(c2ccc(-c3ccc(-c4nnn[nH]4)nc3)c(F)c2)C(=O)O1 [Exmp. 152, (S)-[N-3-(4-(2-(5-Tetrazolyl)-5-pyridinyl)-3-fluorophenyl)-2-oxo-5-oxazolidinyl]methyl Acetamide] | >25 µg/mL

Source: patent publication US6689779B2, “Oxazolidinone derivatives and a process for the preparation thereof” (priority 2000, dated 2004)
